Assay results from patent US10011571B2, “Preparation method for aromatic heterocyclic compound used as selective JAK3 and/or JAK1 kinase inhibitor and application of aromatic heterocyclic compound” (SHENZHEN CHIPSCREEN BIOSCIENCES, LTD., priority 2014, dated 2018).

Tests used:
JAK3 = JAK3 (Homo sapiens (Human), UniProt P52333); assay: Eurofins IC50Profiler radiometric kinase assay, JAK3; type: biochemical; details: 9 semilog concentrations
Source text: A proportion of the compounds of the present invention are subjected to kinase profile screening (KinaseProfiler™)) and enzymatic inhibitory activity (IC50Profiler™)) assay by entrusting Eurofins company (http://www.eurofins.com). Besides the kinases in the JAK family, the kinases that have been screened for their activity also include most Group 3F and Group 4 kinases (ITK, BLK, TBK1, VEGFRs, ERBBs, etc.), and blood system related kinases (Zhang J. et al. 2009, Nat. Rev. Cancer., 9: 28-39). The concentration of the test compound for kinase profile screening is 1 μM, and a gradient of 9 semilog concentration gradients are used to determine IC50. Detection is carried out according to standard procedure of Eurofins Company. Briefly, according to the requirements of different kinase reactions, 0.2 μL test compound (50 μM, dissolved in dimethyl sulfoxide (DMSO)) is added to reaction buffer containing specific kinase (the buffer system containing 20 mM MOPS, 1 mM EDTA, 0.01% Brij-35, 5% Glycerol, 0.1% β-mercaptoethanol, 1 mg/mL BSA, or 50 mM TRIS, 0.1 mM EGTA, 0.1 mM Na3VO4, 0.1% β-mercaptoethanol, 1 mg/mL BSA, based on the type of kinase used). Subsequently, a kinase specific substrate at a final concentration of 50 μM (specific substrate used for specific kinase), 10 mM Mg Acetate and isotope-labeled γ-^33P ATP (radio-activity of about 500 cpm/pmol) are sequentially added to a total volume of 10 μL for the reaction system. After incubation at room temperature for 40 min, the reaction is terminated by adding 3% phosphoric acid solution. The mixture is then transferred to a filter-type low temperature spray dryer (P30 filtermat), and washed by 75 mM phosphoric acid solution for 3 times and by methanol once. After drying, radio-activity is detected. For specific procedure, see the standard procedure provided by Eurofins Company: http://www.eurofins.com/media/9724077/kinaseprofiler_assay_protocol_guide_eurofins_v64.pdf).

CTLL-2 cells = assay: Cell growth activity assay (MTS), CTLL-2 cell model; type: cell-based, mouse; details: Mus musculus; for activity at 0.3 µM: CTLL-2, 300 nM, 24 h, read-out: CTLL-2 % growth rate @300 nM; for GI50: CTLL-2, 24 h
Summary of the method: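 Mouse IL-2-dependent T-cell line seeded ~20,000 cells/well, compounds added after 24 h at gradient concentrations (top 10 μM; CTLL-2 evaluation at 300 nM), cultured another 24 h. MTS/PMS added, 2 h at 37° C, absorbance 490 nm; inhibition vs DMSO control after negative-control background subtraction, GI50 calculated; triplicate.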

HeLa cells = assay: Cell growth activity assay (MTS), HeLa cell model; type: cell-based, human; parameters: activity: dose or concentration left out as unconfirmed; details: Homo sapiens, HeLa, 72 h; for activity: read-out: HeLa % growth rate
Summary of the method: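 HeLa human cervical cancer cells were plated at about 5000 cells/well in a 96-well plate. After 24 h, test compounds were added in concentration gradients (highest final concentration 40 μM), alongside a DMSO solvent control and a negative control. After another 72 h, the medium was replaced with 100 μL fresh medium plus 20 μL MTS/PMS (20:1). Plates were incubated 2 h at 37° C. and absorbance was read at 490 nm to give growth inhibition and GI50.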

Sequence of JAK3 (P52333 whole entry, species assumed): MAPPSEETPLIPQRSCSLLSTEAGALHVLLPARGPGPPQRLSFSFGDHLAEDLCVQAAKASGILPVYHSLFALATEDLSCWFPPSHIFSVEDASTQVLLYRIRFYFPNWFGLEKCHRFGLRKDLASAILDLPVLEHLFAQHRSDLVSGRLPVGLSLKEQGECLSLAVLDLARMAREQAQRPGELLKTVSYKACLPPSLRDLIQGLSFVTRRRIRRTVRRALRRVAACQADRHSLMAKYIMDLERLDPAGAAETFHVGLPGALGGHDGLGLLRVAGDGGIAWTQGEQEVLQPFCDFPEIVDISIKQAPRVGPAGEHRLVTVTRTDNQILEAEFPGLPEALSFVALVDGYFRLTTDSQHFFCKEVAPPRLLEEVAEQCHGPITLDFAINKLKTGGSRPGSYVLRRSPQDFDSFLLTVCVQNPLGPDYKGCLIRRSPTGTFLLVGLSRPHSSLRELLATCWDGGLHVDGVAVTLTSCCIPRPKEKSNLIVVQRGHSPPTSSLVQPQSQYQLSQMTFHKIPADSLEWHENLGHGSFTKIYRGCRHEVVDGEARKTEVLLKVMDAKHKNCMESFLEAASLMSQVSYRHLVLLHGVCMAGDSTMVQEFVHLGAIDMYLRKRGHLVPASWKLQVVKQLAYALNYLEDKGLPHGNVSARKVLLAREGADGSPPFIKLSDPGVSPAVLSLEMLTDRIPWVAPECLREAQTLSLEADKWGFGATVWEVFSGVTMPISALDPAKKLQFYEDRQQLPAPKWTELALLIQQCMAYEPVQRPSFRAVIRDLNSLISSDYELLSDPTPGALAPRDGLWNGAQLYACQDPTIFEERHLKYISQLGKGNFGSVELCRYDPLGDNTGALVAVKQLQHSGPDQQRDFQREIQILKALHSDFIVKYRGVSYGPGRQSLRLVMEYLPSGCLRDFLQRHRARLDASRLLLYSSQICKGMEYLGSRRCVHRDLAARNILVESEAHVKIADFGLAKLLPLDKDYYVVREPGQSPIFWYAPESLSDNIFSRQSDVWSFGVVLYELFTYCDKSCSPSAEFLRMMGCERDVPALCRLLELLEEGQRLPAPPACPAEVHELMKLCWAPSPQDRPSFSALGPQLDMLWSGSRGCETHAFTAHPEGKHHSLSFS

Row | SMILES | IC50 (JAK3) [nM] | activity at 0.3 µM (CTLL-2 cells) [%] | GI50 (CTLL-2 cells) [nM] | GI50 (HeLa cells) [nM] | activity (HeLa cells) [%]
1 | C=CC(=O)N(C)c1cc(Nc2ncc(Cl)c(NCCCNC(=O)c3ccc(C#N)cc3)n2)ccc1F [Example 7, N-(3-(5-chloro-2-(4-fluoro-3-(N-methylacrylamido)phenylamino)pyrimidinyl-4-amino)propyl)-4-cyano-benzamide] | 11 | 10 | 116 | > 40000 | 98
2 | C=CC(=O)N(C)c1cc(Nc2ncc(Cl)c(NCCCNC(=O)c3ccc(C(F)(F)F)cc3)n2)ccc1F [Example 22, N-(3-(5-chloro-2-(4-fluoro-3-(N-methylacrylamido)phenylamino)pyrimidinyl-4-amino)propyl)-4-trifluoromethylbenzamide] | 21 | 7 | 249 | > 40000 | 78
3 | C=CC(=O)N(C)c1cc(Nc2ncc(Cl)c(NCCCNC(=O)c3ccc(F)cc3)n2)ccc1F [Example 23, N-(3-(5-chloro-2-(4-fluoro-3-(N-methylacrylamido)phenylamino)pyrimidinyl-4-amino)propyl)-4-fluorobenzamide] | 11 | 4 | 140 |  | 96
